Source: ChEMBL document CHEMBL1833828, “Efficient conversion of a nonselective norepinephrin reuptake inhibitor into a dual muscarinic antagonist-β₂-agonist for the treatment of chronic obstructive pulmonary disease” (J Med Chem, 2011)

Columns and labels:
[1] = Lipophilicity, log D of the compound; format: physicochemical; conditions: octanol/water
[2] = molecular target: T1, Sodium-dependent noradrenaline transporter (Homo sapiens, UniProt P23975); test: Displacement of [3H]nisoxetine from human NET receptor
[3] = Metabolic stability in human liver microsomes; format: ADME, Microsome; conditions: read-out: Stability
[4] = molecular target: T2, Muscarinic acetylcholine receptor M3 (Homo sapiens, UniProt P20309); test: Displacement of [3H]N-methylscopolamine from human M3 receptor
Target sequence in this assay (P20309 whole entry): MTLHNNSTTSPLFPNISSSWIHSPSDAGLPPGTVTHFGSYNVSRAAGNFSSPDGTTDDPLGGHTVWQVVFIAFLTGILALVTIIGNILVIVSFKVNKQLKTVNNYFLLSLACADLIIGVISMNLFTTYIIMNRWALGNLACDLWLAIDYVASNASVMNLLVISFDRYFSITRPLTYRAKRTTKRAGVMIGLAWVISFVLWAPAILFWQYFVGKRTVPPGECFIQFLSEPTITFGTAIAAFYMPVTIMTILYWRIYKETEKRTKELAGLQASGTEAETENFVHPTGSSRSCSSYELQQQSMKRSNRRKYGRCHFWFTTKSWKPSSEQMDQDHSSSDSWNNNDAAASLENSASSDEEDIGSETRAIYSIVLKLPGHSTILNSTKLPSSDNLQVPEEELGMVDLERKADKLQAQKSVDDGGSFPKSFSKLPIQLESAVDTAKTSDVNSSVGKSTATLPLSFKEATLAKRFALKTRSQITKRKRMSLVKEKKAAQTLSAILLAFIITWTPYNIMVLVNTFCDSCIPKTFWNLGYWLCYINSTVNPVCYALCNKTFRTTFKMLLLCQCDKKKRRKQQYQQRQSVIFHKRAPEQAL

[5] = molecular target: T1, Sodium-dependent noradrenaline transporter; test: Binding affinity at human NET receptor at 10 uM
[6] = Bronchodilatory action in guinea pig trachea assessed as inhibition of electrical field-stimulated acetylcholine release in the presence of beta-2 adrenergic receptor antagonist propranolol; format: functional, tissue-based, Cavia porcellus
[7] = Bronchodilatory action against electrical field-stimulated constriction in guinea pig trachea assessed as time taken for the muscle tone at EC70 to recover by 50% of inhibition induced in the presence of beta-2 adrenergic receptor antagonist propranolol; format: functional, Cavia porcellus
[8] = Bronchodilatory action against electrical field-stimulated constriction in guinea pig trachea assessed as time taken for the muscle tone at EC70 to recover by 50% of inhibition induced; format: functional, Cavia porcellus
[9] = Permeability across human Caco2 cells; format: ADME, cell-based; conditions: Caco-2, read-out: permeability
[10] = molecular target: T3, Beta-2 adrenergic receptor (Homo sapiens, UniProt P07550); test: Agonist activity at human cloned beta-2 adrenergic receptor expressed in CHO cells after compound wash-out relative to unwashed cells; format: functional, cell-based
Target sequence in this assay (P07550 whole entry, looked up): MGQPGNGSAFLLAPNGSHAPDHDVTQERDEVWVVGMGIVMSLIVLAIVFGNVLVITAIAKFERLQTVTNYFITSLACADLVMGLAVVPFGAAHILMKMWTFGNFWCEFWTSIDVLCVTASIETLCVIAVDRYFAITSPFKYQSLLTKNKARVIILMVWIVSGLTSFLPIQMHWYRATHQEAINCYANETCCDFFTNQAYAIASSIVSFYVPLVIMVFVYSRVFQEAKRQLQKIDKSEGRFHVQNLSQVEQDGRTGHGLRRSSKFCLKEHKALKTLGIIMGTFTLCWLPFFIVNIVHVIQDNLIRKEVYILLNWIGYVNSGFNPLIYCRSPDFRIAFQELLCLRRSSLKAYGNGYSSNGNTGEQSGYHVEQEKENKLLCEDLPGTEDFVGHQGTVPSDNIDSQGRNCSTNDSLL

[11] = molecular target: T3, Beta-2 adrenergic receptor; test: Agonist activity at human beta-2 adrenergic receptor expressed in CHO cells assessed as induction of intracellular cAMP production; format: functional, cell-based
Target sequence in this assay (P07550 whole entry): as the sequence (P07550 whole entry, looked up) above

Cavia porcellus = species on record: Cavia porcellus; test: Bronchodilatory action in guinea pig trachea assessed as inhibition of electrical field-stimulated acetylcholine release; format: functional
[12] = molecular target: Beta-1 adrenergic receptor (Homo sapiens, UniProt P08588); test: Agonist activity at beta-1 adrenergic receptor; format: functional
[13] = molecular target: T2, Muscarinic acetylcholine receptor M3; test: Antagonist activity at human cloned M3 receptor assessed as time taken to reach 50% of total [3H]NMS for solvent treated membranes by dilution-offset method; format: functional
Target sequence in this assay (P20309 whole entry, looked up): as the sequence (P20309 whole entry) above

T1 sequence (P23975 whole entry): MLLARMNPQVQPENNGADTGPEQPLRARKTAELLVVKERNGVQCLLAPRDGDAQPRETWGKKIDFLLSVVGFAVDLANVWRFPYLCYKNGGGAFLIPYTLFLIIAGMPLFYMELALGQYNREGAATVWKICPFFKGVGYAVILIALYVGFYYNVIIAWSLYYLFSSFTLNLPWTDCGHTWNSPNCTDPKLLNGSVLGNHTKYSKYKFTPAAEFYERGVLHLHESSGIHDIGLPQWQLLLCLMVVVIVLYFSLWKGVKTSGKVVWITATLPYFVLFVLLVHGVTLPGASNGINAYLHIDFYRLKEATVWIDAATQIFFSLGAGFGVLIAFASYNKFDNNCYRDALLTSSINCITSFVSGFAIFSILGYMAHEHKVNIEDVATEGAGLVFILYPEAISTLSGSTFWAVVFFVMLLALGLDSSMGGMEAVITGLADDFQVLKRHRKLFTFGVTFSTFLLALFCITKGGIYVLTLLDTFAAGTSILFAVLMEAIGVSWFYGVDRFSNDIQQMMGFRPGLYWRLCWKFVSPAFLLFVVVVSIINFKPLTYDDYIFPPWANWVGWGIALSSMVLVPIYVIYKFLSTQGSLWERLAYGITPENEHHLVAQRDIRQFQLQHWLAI
Chain of Beta-1 adrenergic receptor (P08588 whole entry): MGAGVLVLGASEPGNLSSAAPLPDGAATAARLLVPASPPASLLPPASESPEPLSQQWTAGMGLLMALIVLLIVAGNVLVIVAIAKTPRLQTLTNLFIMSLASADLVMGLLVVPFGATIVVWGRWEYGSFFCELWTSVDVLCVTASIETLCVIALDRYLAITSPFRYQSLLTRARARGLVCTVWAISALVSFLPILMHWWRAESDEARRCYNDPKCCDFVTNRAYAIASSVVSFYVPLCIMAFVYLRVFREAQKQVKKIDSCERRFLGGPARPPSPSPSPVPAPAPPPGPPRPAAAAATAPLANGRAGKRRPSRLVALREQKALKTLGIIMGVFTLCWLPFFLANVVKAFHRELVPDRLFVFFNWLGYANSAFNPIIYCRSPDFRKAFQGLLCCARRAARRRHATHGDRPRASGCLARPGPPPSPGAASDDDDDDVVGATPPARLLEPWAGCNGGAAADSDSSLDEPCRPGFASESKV

logD [1] | Ki [2] | microsomal CLint [3] | Ki [4] | Compound | Activity [5] | EC50 [6] | Time [7] | Time [8] | Papp [9] | fold change (FC) [10] | EC50 [11] | EC50 (Cavia porcellus) | EC50 [12] | TIME [13]
0.3 | 2900 nM | < 8 µL/min/mg | 2.5 nM | Oc1cccc(F)c1-n1nc(OC2CCNCC2)c2c1CCCC2 | – | – | – | – | – | – | – | – | – | –
0.6 | – | < 8 µL/min/mg | 10 nM | Oc1cccc(F)c1-n1nc(OC2CCNCC2)c2ccccc21 | – | – | – | – | – | – | – | – | – | –
1.4 | 6.8 nM | < 8 µL/min/mg | 49 nM | Fc1cccc(F)c1-n1nc(OC2CCNCC2)c2ccccc21 | – | – | – | – | – | – | – | – | – | –

Compound | logD [1] | Ki [2] | microsomal CLint [3] | Ki [4] | Activity [5] | EC50 [6] | Time [7] | Time [8] | Papp [9] | fold change (FC) [10] | EC50 [11] | EC50 (Cavia porcellus) | EC50 [12] | TIME [13]
Cc1ccc(O)c([C@H](CCN(C(C)C)C(C)C)c2ccccc2)c1 [TOLTERODINE] | 1.8 | – | < 8 µL/min/mg | – | 15% | – | – | – | – | – | – | – | – | –
O=c1ccc2c([C@@H](O)CNCCCCCCCCCN3CCC(Oc4nn(-c5c(O)cccc5F)c5c4CCCC5)CC3)ccc(O)c2[nH]1 | 2.4 | – | 25 µL/min/mg | 2.2 nM | – | 27 nM | >16 h | >16 h | < 1 ×10⁻⁶ cm/s | 1.5 | 14 nM | 28 nM | > 10000 nM | < 0.267 h
